In patent publication US20220378706A1, “PHARMACEUTICAL COMPOSITION COMPRISING PDE9 INHIBITOR” (Eisai R&D Management Co., Ltd., priority 2017, published 2022):
Read-outs that look alike come from different tables or passages of the source.

Test: Multiple ascending dose study: plasma pharmacokinetics
Format: in vivo
Conditions: human, po; for Tmax: read-out: tmax Median
Description: Four sequential cohorts of healthy participants (≥50 years and ≤85 years old) were treated with multiple ascending doses of Compound A up to the maximum tolerated dose (MTD). A total of 6 participants per cohort were randomized to Compound A. Proposed doses of Compound A were:
Participants received Compound A capsules, orally once daily (QD) on Days 1 to 14 after an overnight fast of at least 10 hours. Compound A was administered orally with 240 milliliter (mL) (8 fluid ounces) of water.
1) Maximum drug concentration (Cmax) [Time Frame: Day 1 and Day 14]
Blood samples were collected on Day 1 at predose and postdose 0.5 (30 minutes), 1, 1.5, 2, 3, 4, 5, 6, 8, 12, and 18 hours; Day 14 (at predose and postdose 0.5, 1, 1.5, 2, 3, 4, 5, 6, 8, 12, and 18 hours); and Day 15 (24 hours postdose from Day 14).
2) Mean time to reach maximum (peak) drug concentration (tmax) [Time Frame: Day 1 and Day 14]
4) Mean area under the concentration-time curve from zero time extrapolated to infinity (AUC(0-inf)) [Time Frame: Day 14]

## COc1ncc(C)c(-c2ccc3c(c2)[nH]c(=O)c2cnn([C@H]4CCOC4)c23)c1C [Compound A, (S)-7-(2-methoxy-3,5-dimethylpyridin-4-yl)-1-(tetrahydrofuran-3-yl)-1H-pyrazolo[4,3-c]quin olin-4(5H)-one]
50 mg, Part C, 50 mg oral, read-out: Cmax GM (% CV)
  Cmax: 594 ng/mL
50 mg, Part C, 50 mg oral, read-out: Cmax Mean (SD)
  Cmax: 608 ng/mL
50 mg, Part C, 50 mg oral, read-out: Cmax Median
  Cmax: 590 ng/mL
50 mg, Part C, 50 mg oral
  Tmax: 1.98 h
100 mg, Day 1, 100 mg QD oral, read-out: AUC(0-24 h) GM (% CV)
  AUC(0-t): 5230 ng·h/mL
100 mg, Day 1, 100 mg QD oral, read-out: AUC(0-24 h) Mean (SD)
  AUC(0-t): 5250 ng·h/mL
100 mg, Day 1, 100 mg QD oral, read-out: AUC(0-24 h) Median
  AUC(0-t): 5180 ng·h/mL
100 mg, Day 1, 100 mg QD oral, read-out: Cmax GM (% CV)
  Cmax: 366 ng/mL
100 mg, Day 1, 100 mg QD oral, read-out: Cmax Mean (SD)
  Cmax: 373 ng/mL
100 mg, Day 1, 100 mg QD oral, read-out: Cmax Median
  Cmax: 344 ng/mL
100 mg, Day 1, 100 mg QD oral
  Tmax: 2.53 h
100 mg, Day 14, 100 mg QD oral, read-out: AUC(0-24 h) GM (% CV)
  AUC(0-t): 16600 ng·h/mL
100 mg, Day 14, 100 mg QD oral, read-out: AUC(0-24 h) Mean (SD)
  AUC(0-t): 16900 ng·h/mL
100 mg, Day 14, 100 mg QD oral, read-out: AUC(0-24 h) Median
  AUC(0-t): 16800 ng·h/mL
100 mg, Day 14, 100 mg QD oral, read-out: AUC(0-inf) GM (% CV)
  AUC(0-inf): 56400 ng·h/mL
100 mg, Day 14, 100 mg QD oral, read-out: AUC(0-inf) Mean (SD)
  AUC(0-inf): 58600 ng·h/mL
100 mg, Day 14, 100 mg QD oral, read-out: AUC(0-inf) Median
  AUC(0-inf): 62700 ng·h/mL
100 mg, Day 14, 100 mg QD oral, read-out: Cmax GM (% CV)
  Cmax: 1010 ng/mL
100 mg, Day 14, 100 mg QD oral, read-out: Cmax Mean (SD)
  Cmax: 1020 ng/mL
100 mg, Day 14, 100 mg QD oral, read-out: Cmax Median
  Cmax: 1030 ng/mL
100 mg, Day 14, 100 mg QD oral
  Tmax: 2.56 h
200 mg, Day 1, 200 mg QD oral, read-out: AUC(0-24 h) GM (% CV)
  AUC(0-t): 8650 ng·h/mL
200 mg, Day 1, 200 mg QD oral, read-out: AUC(0-24 h) Mean (SD)
  AUC(0-t): 9050 ng·h/mL
200 mg, Day 1, 200 mg QD oral, read-out: AUC(0-24 h) Median
  AUC(0-t): 10400 ng·h/mL
200 mg, Day 1, 200 mg QD oral, read-out: Cmax GM (% CV)
  Cmax: 687 ng/mL
200 mg, Day 1, 200 mg QD oral, read-out: Cmax Mean (SD)
  Cmax: 740 ng/mL
200 mg, Day 1, 200 mg QD oral, read-out: Cmax Median
  Cmax: 813 ng/mL
200 mg, Day 1, 200 mg QD oral
  Tmax: 2.01 h
200 mg, Day 14, 200 mg QD oral, read-out: AUC(0-24 h) GM (% CV)
  AUC(0-t): 22800 ng·h/mL
200 mg, Day 14, 200 mg QD oral, read-out: AUC(0-24 h) Mean (SD)
  AUC(0-t): 23100 ng·h/mL
200 mg, Day 14, 200 mg QD oral, read-out: AUC(0-24 h) Median
  AUC(0-t): 21300 ng·h/mL
200 mg, Day 14, 200 mg QD oral, read-out: AUC(0-inf) GM (% CV)
  AUC(0-inf): 70500 ng·h/mL
200 mg, Day 14, 200 mg QD oral, read-out: AUC(0-inf) Mean (SD)
  AUC(0-inf): 72200 ng·h/mL
200 mg, Day 14, 200 mg QD oral, read-out: AUC(0-inf) Median
  AUC(0-inf): 61900 ng·h/mL
200 mg, Day 14, 200 mg QD oral, read-out: Cmax GM (% CV)
  Cmax: 1680 ng/mL
200 mg, Day 14, 200 mg QD oral, read-out: Cmax Mean (SD)
  Cmax: 1730 ng/mL
200 mg, Day 14, 200 mg QD oral, read-out: Cmax Median
  Cmax: 1950 ng/mL
200 mg, Day 14, 200 mg QD oral
  Tmax: 2 h
400 mg, Day 1, 400 mg QD oral, Japanese, read-out: AUC(0-24 h) GM (% CV)
  AUC(0-t): 18300 ng·h/mL
400 mg, Day 1, 400 mg QD oral, Japanese, read-out: AUC(0-24 h) Mean (SD)
  AUC(0-t): 18400 ng·h/mL
400 mg, Day 1, 400 mg QD oral, Japanese, read-out: AUC(0-24 h) Median
  AUC(0-t): 18900 ng·h/mL
400 mg, Day 1, 400 mg QD oral, Japanese, read-out: Cmax GM (% CV)
  Cmax: 1510 ng/mL
400 mg, Day 1, 400 mg QD oral, Japanese, read-out: Cmax Mean (SD)
  Cmax: 1520 ng/mL
400 mg, Day 1, 400 mg QD oral, Japanese, read-out: Cmax Median
  Cmax: 1510 ng/mL
400 mg, Day 1, 400 mg QD oral, Japanese
  Tmax: 2 h
400 mg, Day 1, 400 mg QD oral, Non-Japanese, read-out: AUC(0-24 h) GM (% CV)
  AUC(0-t): 14500 ng·h/mL
400 mg, Day 1, 400 mg QD oral, Non-Japanese, read-out: AUC(0-24 h) Mean (SD)
  AUC(0-t): 14600 ng·h/mL
400 mg, Day 1, 400 mg QD oral, Non-Japanese, read-out: AUC(0-24 h) Median
  AUC(0-t): 14700 ng·h/mL
400 mg, Day 1, 400 mg QD oral, Non-Japanese, read-out: Cmax GM (% CV)
  Cmax: 1100 ng/mL
400 mg, Day 1, 400 mg QD oral, Non-Japanese, read-out: Cmax Mean (SD)
  Cmax: 1100 ng/mL
400 mg, Day 1, 400 mg QD oral, Non-Japanese, read-out: Cmax Median
  Cmax: 1140 ng/mL
400 mg, Day 1, 400 mg QD oral, Non-Japanese
  Tmax: 1.76 h
400 mg, Day 14, 400 mg QD oral, Japanese, read-out: AUC(0-24 h) GM (% CV)
  AUC(0-t): 42700 ng·h/mL
400 mg, Day 14, 400 mg QD oral, Japanese, read-out: AUC(0-24 h) Mean (SD)
  AUC(0-t): 42900 ng·h/mL
400 mg, Day 14, 400 mg QD oral, Japanese, read-out: AUC(0-24 h) Median
  AUC(0-t): 43200 ng·h/mL
400 mg, Day 14, 400 mg QD oral, Japanese, read-out: AUC(0-inf) GM (% CV)
  AUC(0-inf): 122000 ng·h/mL
400 mg, Day 14, 400 mg QD oral, Japanese, read-out: AUC(0-inf) Mean (SD)
  AUC(0-inf): 125000 ng·h/mL
400 mg, Day 14, 400 mg QD oral, Japanese, read-out: AUC(0-inf) Median
  AUC(0-inf): 120000 ng·h/mL
400 mg, Day 14, 400 mg QD oral, Japanese, read-out: Cmax GM (% CV)
  Cmax: 3080 ng/mL
400 mg, Day 14, 400 mg QD oral, Japanese, read-out: Cmax Mean (SD)
  Cmax: 3100 ng/mL
400 mg, Day 14, 400 mg QD oral, Japanese, read-out: Cmax Median
  Cmax: 3250 ng/mL
400 mg, Day 14, 400 mg QD oral, Japanese
  Tmax: 1.5 h
400 mg, Day 14, 400 mg QD oral, Non-Japanese, read-out: AUC(0-24 h) GM (% CV)
  AUC(0-t): 39200 ng·h/mL
400 mg, Day 14, 400 mg QD oral, Non-Japanese, read-out: AUC(0-24 h) Mean (SD)
  AUC(0-t): 40300 ng·h/mL
400 mg, Day 14, 400 mg QD oral, Non-Japanese, read-out: AUC(0-24 h) Median
  AUC(0-t): 43900 ng·h/mL
400 mg, Day 14, 400 mg QD oral, Non-Japanese, read-out: AUC(0-inf) GM (% CV)
  AUC(0-inf): 121000 ng·h/mL
400 mg, Day 14, 400 mg QD oral, Non-Japanese, read-out: AUC(0-inf) Mean (SD)
  AUC(0-inf): 135000 ng·h/mL
400 mg, Day 14, 400 mg QD oral, Non-Japanese, read-out: AUC(0-inf) Median
  AUC(0-inf): 141000 ng·h/mL
400 mg, Day 14, 400 mg QD oral, Non-Japanese, read-out: Cmax GM (% CV)
  Cmax: 2740 ng/mL
400 mg, Day 14, 400 mg QD oral, Non-Japanese, read-out: Cmax Mean (SD)
  Cmax: 2820 ng/mL
400 mg, Day 14, 400 mg QD oral, Non-Japanese, read-out: Cmax Median
  Cmax: 3050 ng/mL
400 mg, Day 14, 400 mg QD oral, Non-Japanese
  Tmax: 1.79 h
